Here are results for seven molecules from ChEMBL document CHEMBL4177677, “Relevance of Half-Life in Drug Design” (J Med Chem, 2018).

Data set [1] in a line: Terminal half life in human at 0.1 mg/kg, iv. Format: ADME, organism-based. The settings on record: in vivo, read-out: beta t1/2 (converted).
Data set [2] can be described thus: Drug excretion in human kidney. The note with it: urine.
The nature of data set [3]: Inhibition of human calcium channel.
The species entered for data set [4] is Homo sapiens. The data set can be described thus: Unbound concentration in human at 5 to 10 mg, qd. In kind it is ADME, organism-based. The settings on record: in vivo.
Data set [5] is described as follows: Half life in human. Format: ADME, organism-based. The settings on record: in vivo.
Data set [6] in a line: Terminal half life in human. Format: ADME, organism-based. The settings on record: in vivo, read-out: beta t1/2.
Data set [7] is filed under the species Homo sapiens. The data set can be described thus: Unbound concentration in human at 10 mg, tid. The note with it: in vivo.
A short description of data set [8]: Half life in human at 10 mg, tid. The settings on record: in vivo.

Turning to `NS(=O)(=O)N1CCN(C2CN(CC[C@]3(c4ccc(Cl)c(Cl)c4)CCC(=O)N(CC4CC4)C3)C2)CC1`, the half-life in data set [1] is 28 h.
In data set [2], `NCCCC(O)(P(=O)(O)O)P(=O)(O)O` [ALENDRONIC ACID] gave a dose excreted of 20 to 80%.
As to `CCOC(=O)C1=C(COCCN)NC(C)=C(C(=O)OC)C1c1ccccc1Cl` (stereo not given) [AMLODIPINE], the IC50 in data set [3] stood at 2 nM. Besides, the “Drug uptake(free)” value in the data set filed under Homo sapiens [4] was determined as 2 nM.
Take `COc1cc(F)c(C(C)C)cc1-c1ccc(C(F)(F)F)cc1CN1C(=O)O[C@H](c2cc(C(F)(F)F)cc(C(F)(F)F)c2)[C@@H]1C` [ANACETRAPIB]: the half-life in data set [5] is 60 h.
As for `CC(C(=O)O)c1ccc2oc(-c3ccc(Cl)cc3)nc2c1` (stereo not given) [BENOXAPROFEN], in data set [6], the half-life was 19 to 26 h.
As to `COC(=O)C1=C(C)NC(C)=C(C(=O)OC)C1c1ccccc1[N+](=O)[O-]` [NIFEDIPINE], in data set [3], the IC50 stood at 4 nM. Further, the “Drug uptake(free)” value in the data set listed under Homo sapiens [7] is 6 nM. Also, the half-life in data set [8] is 2 h.
Molecule `C[C@@H]1CCN(C(=O)CC#N)C[C@@H]1N(C)c1ncnc2[nH]ccc12` [TOFACITINIB] showed a half-life in data set [5] of 3 h.

Usually IC50 stands for the concentration that gives 50% inhibition.
